In PMC9645410 (Chemical Science, 2022):

Each compound was assayed against GFPxm163 (Aequorea macrodactyla, UniProt Q8WTC8) (assay: fluorescence quenching titration).
Type: binding

Chain of GFPxm163 (Q8WTC8 1-238): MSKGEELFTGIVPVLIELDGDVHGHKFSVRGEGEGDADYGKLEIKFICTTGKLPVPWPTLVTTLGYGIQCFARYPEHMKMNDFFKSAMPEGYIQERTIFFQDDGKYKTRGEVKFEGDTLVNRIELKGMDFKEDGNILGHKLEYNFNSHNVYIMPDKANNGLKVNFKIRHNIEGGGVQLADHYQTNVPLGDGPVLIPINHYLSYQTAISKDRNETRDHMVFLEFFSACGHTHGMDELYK

Kd	SMILES
46.2 ± 5.3 mM	Br [bromide]
6.4 ± 0.1 mM	I [iodide]

SMILES	Kd
O=[N+]([O-])O [nitrate]	24.1 ± 0.8 mM
